Here are results for 17 molecules from US6831199B1, “Pyrimidine compounds and derivatives thereof” (G. D. Searle & Co., priority 1995, dated 2004).

For test [1], the target named is T1, Human vitronectin receptor (αvβ3) (Homo sapiens, UniProt P05106+P06756).
T1 construct: Human vitronectin receptor (αvβ3) was purified from human placenta; from tissue; host or cells: human placenta
As to the kind of experiment: Vitronectin adhesion assay (solid phase receptor assay, competition with biotinylated vitronectin). It counts as binding. The note with it: read-out: AvB3 IC50. The method, then: VITRONECTIN ADHESION ASSAY
Assay buffer, OPD substrate tablets, and RIA grade BSA were obtained from Sigma (St. Louis, Mo.). Anti-biotin antibody was obtained from Calbiochem (La Jolla, Calif.). Linbro microtiter plates were obtained from Flow Labs (McLean, Va.). ADP reagent was obtained from Sigma (St. Louis, Mo.).
(§1) Solid Phase Receptor Assays
(§2) The purified human vitronectin receptor (αvβ3) was diluted from stock solutions to 1.0 μg/mL in Tris-buffered saline containing 1.0 mM Ca^++, Mg^++, and Mn^++, pH 7.4 (TBS^+++). The diluted receptor was immediately transferred to Linbro microtiter plates at 100 μL/well (100 ng receptor/well). The plates were sealed and incubated overnight at 4° C. to allow the receptor to bind to the wells. All remaining steps were at room temperature. The assay plates were emptied and 200 μL of 1% RIA grade BSA in TBS^+++(TBS^+++/BSA) were added to block exposed plastic surfaces. Following a 2 hour incubation, the assay plates were washed with TBS^+++ using a 96 well plate washer. Logarithmic serial dilution of the test compound and controls were made starting at a stock concentration of 2 mM and using 2 nM biotinylated vitronectin in TBS^+++/BSA as the diluent. This premixing of labeled ligand with test (or control) ligand, and subsequent transfer of 50 μL aliquots to the assay plate was carried out with a CETUS Propette robot; the final concentration of the labeled ligand was 1 nM and the highest concentration of test compound was 1.0×10^−4 M. The competition occurred for two hours after which all wells were washed with a plate washer as before. Affinity purified horseradish peroxidase labeled goat anti-biotin antibody was diluted 1:3000 in TBS^+++/BSA and 125 μL were added to each well. After 30 minutes, the plates were washed and incubated with OPD/H2O2 substrate in 100 mM/L Citrate buffer, pH 5.0. The plate was read with a microtiter plate reader at a wavelength of 450 nm and when the maximum-binding control wells reached an absorbance of about 1.0, the final A450 were recorded for analysis. The data were analyzed using a macro written for use with the EXCEL™ spreadsheet program. The mean, standard deviation, and % CV were determined for duplicate concentrations. The mean A450 values were normalized to the mean of four maximum-binding controls (no competitor added)(B-MAX). The normalized values were subjected to a four parameter curve fit algorithm [Rodbard et al., Int.

In test [2] the target is T2, Human fibrinogen receptor (αIIbβ3) (Homo sapiens, UniProt P05106+P08514).
T2 construct: Human fibrinogen receptor (αIIbβ3) was purified from outdated platelets; from tissue; host or cells: outdated human platelets
Briefly: Purified IIb/IIIa receptor assay (solid phase receptor assay, competition with biotinylated vitronectin). To be noted: read-out: IIb/IIIa IC50. It counts as binding. The method, then: PURIFIED IIb/IIIa RECEPTOR ASSAY
Human fibrinogen receptor (αIIbβ3) was purified from outdated platelets. […] Biotinylated human vitronectin was prepared by coupling NHS-biotin from Pierce Chemical Company (Rockford, Ill.) to purified vitronectin as previously described. […] Anti-biotin antibody was obtained from Calbiochem (La Jolla, Calif.). Linbro microtiter plates were obtained from Flow Labs (McLean, Va.). ADP reagent was obtained from Sigma (St. Louis, Mo.).
as §1
as §2, with “human fibrinogen” for “human vitronectin”, “receptor (αIIbβ3)” for “receptor (αvβ3)”, “in TBS^+++ (TBS^+++/BSA)” for “in TBS^+++(TBS^+++/BSA)”, “with […]” for “with OPD/H2O2”, “mM/L citrate” for “mM/L Citrate”, “fit algorithm, [Robard” for “fit algorithm [Rodbard”

Where a name gives a salt, the structure may show the parent alone.

On to “ethyl 3S-[[2-[[[3-[[(cyanoimino)(methylamino)methyl]amino]phenyl]carbonyl]amino]acetyl]amino]-4-pentynoate [Example 140]”, for which the figures for the IC50 in test [1] and in test [2] were 4590 nM and greater than 100 µM, respectively.

On to `N=C(N)Nc1cccc(C(=O)NCC(=O)NC(CC(=O)O)c2cc(Cl)cc(Cl)c2Cl)c1` (stereo not drawn) [Example 254, β-[[2-[[[3-[(aminoiminomethyl)amino]phenyl]carbonyl]amino]acetyl]amino]-2,3,5-trichlorobenzenepropanoic acid, trifluoroacetate salt], for which the IC50 was 16.5 nM in test [1] and 6.91 µM in test [2].

On to `CC(C)Oc1cc(OC(C)C)cc(C(CC(=O)O)NC(=O)CNC(=O)c2cccc(NC(=N)N)c2)c1` (stereo not drawn) [Example 275, β-[[2-[[[3-[(aminoiminomethyl)amino]phenyl]carbonyl]amino]acetyl]amino]-3,5-bis(1-methylethoxy)benzenepropanoic acid, trifluoroacetate salt], for which the IC50 in test [1] turned out to be 6.98 nM; in test [2] it was 1.2 µM.

Turning to `O=C(O)CC(NC(=O)CNC(=O)c1cccc(NC(=O)NCc2ccccn2)c1)c1cccnc1` (stereo not drawn) [Example 268, β[[2-[[[3-[[[(2-pyridinylmethyl)amino]carbonyl]amino]phenyl]carbonyl]amino]acetyl]amino]pyridine-3-propanoic acid, (bis)trifluoroacetate salt], the IC50 in test [1] worked out at 0.67 nM; in test [2], 7.43 µM.

For `N=C(Nc1cccc(C(=O)NCC(=O)NC(CC(=O)O)c2cc(Cl)cc(Cl)c2)c1)N1CCCCC1` (stereo not drawn) [Example 285, 3,5-dichloro-β-[[2-[[[3-[[imino(1-piperidinyl)methyl]amino]phenyl]carbonyl]amino]acetyl]amino]benzenepropanoic acid, trifluoroacetate salt], the results for the IC50 in test [1] and in test [2] were 229 nM and 3.17 µM, respectively.

As to `CCOC(=O)CC(NC(=O)CNC(=O)c1cccc(NC(N)=O)c1)c1cccnc1` (stereo not drawn) [Example 109, ethyl β-[[2-[[[3-(aminocarbonylamino]phenyl]carbonyl]amino]acetylamino]pyridine-3-propanoate, trifluoroacetate salt], the IC50 in test [1] was 575 nM; in test [2], greater than 100 µM.

For the molecule `O=C(O)CC(NC(=O)CNC(=O)c1cccc(NC(=O)NCc2ccccc2)c1)c1cc(Cl)cc(Cl)c1` (stereo not drawn) [Example 269, 3,5-dichloro-β-[[2-[[[3-[[[(phenylmethyl)amino]carbonyl]amino]phenyl]carbonyl]amino]acetyl]amino]benzenepropanoic acid, monohydrate], the IC50 is 209 nM in test [1] and 25.4 µM in test [2].

For the molecule `CNC(=NC#N)Nc1cccc(C(=O)NCC(=O)NC(CC(=O)O)c2cc(Cl)cc(Cl)c2)c1` (racemic) [Example 198, (±)3,5-dichloro-β-[[2-[[[3-[(cyanoimino)(methylamino)methyl]amino]phenyl]carbonyl]amino]acetyl]amino]benzenepropanoic acid], the IC50 came to 114 nM in test [1] and 37.8 µM in test [2].

With `CC(NC(=O)Nc1cccc(C(=O)NCC(=O)NC(CC(=O)O)c2cccnc2)c1)c1ccccc1` (stereo not drawn) [Example 271, β-[[2-[[[3-[[[(1-phenylethyl)amino]carbonyl]amino]phenyl]carbonyl]amino]acetyl]amino]pyridine-3-propanoic acid, trifluoroacetate salt], the IC50 was found to be 29.9 nM in test [1] and 4.61 µM in test [2].

In the case of `Cc1ccsc1C(CC(=O)O)NC(=O)CNC(=O)c1cccc(NC(=N)N)c1` (stereo not drawn) [Example 244, β-[[2-[[[3-[(aminoiminomethyl)amino]phenyl]carbonyl]amino]acetyl]amino]-3-methylthiophene-2-propanoic acid, trifluoroacetate salt], the IC50 stood at 17.6 nM in test [1] and 4.56 µM in test [2].

For the molecule `N=C(N)Nc1cccc(C(=O)NCC(=O)NC(CC(=O)O)c2ccc(Cl)s2)c1` (stereo not drawn) [251(C), β-[[2-[[[3-[(aminoiminomethyl)amino]phenyl]carbonyl]amino]acetyl]amino]-5-chlorothiophene-2-propanoic acid, trifluoroacetate salt], the IC50 in test [1] is 0.76 nM; in test [2] it was 0.124 µM.

Consider `CCOC(=O)CCNC(=O)CNC(=O)c1cccc(NC(=N)N)c1` [Example 96, N-[2-[[[3-[(aminoiminomethyl)amino]phenyl]carbonyl]amino]acetyl]-β-alanine, ethyl ester], for which the IC50 in test [1] was 1810 nM; in test [2], 5.4 µM.

Consider `N=C(N)Nc1cccc(C(=O)NCC(=O)NC(CC(=O)O)c2cc3ccccc3o2)c1` (stereo not drawn) [Example 259, β-[[2-[[[3-[(aminoiminomethyl)amino]phenyl]carbonyl]amino]acetyl]amino]benzofuran-2-propanoic acid, trifluoroacetate salt], for which the IC50 is 0.81 nM in test [1] and 0.0867 µM in test [2].

Regarding `O=C(O)CC(NC(=O)CNC(=O)c1cccc(Nc2ncc(-c3ccccc3)[nH]2)c1)c1cccnc1` (stereo not drawn) [Example 287, β-[[2-[[[3-[[5-phenyl-1H-imidazol-2-yl)amino]phenyl]carbonylamino]acetyl]amino]pyridine-3-propanoic acid, trifluoroacetate salt], the IC50 in test [1] turned out to be 49.7 nM; in test [2], 0.0411 µM.

With `N#C/N=C(/N)Nc1cccc(C(=O)NCC(=O)NC(CC(=O)O)c2cc(Cl)cc(Cl)c2)c1` (stereo not drawn) [Example 160, β-[[2-[[[3-[[amino(cyanoimino)methyl]amino]phenyl]carbonyl]amino]acetyl]amino]-3,5-dichlorobenzenepropanoic acid], the results for the IC50 in test [1] and in test [2] were 25.6 nM and 10.4 µM, respectively.

As to `N=C(N)Nc1cccc(C(=O)NCC(=O)NC(CC(=O)O)C(=O)NCCO)c1` (racemic) [Example 89, (±)3-[[2-[[[3-[(aminoiminomethyl)amino]phenyl]carbonyl]amino]acetyl]amino]-4-[(2-hydroxyethyl)amino]-4-oxobutanoic acid, trifluoroacetate salt], the IC50 is 1240 nM in test [1] and 9.83 µM in test [2].

On to `N=C(N)Nc1cc(C(=O)NCC(=O)NC(CC(=O)O)c2cc(Cl)cc(Br)c2)cc(C(F)(F)F)c1` (racemic) [Example 216, (±)β-[[2-[[[3-[(aminoiminomethyl)amino]-5-(trifluoromethyl)phenyl]carbonyl]amino]acetyl]amino]-3-bromo-5-chlorobenzenepropanoic acid, trifluoroacetate salt], for which the IC50 in test [1] was found to be 1 nM; in test [2] it was 0.326 µM.
